# Data from ChEMBL document CHEMBL3886216, “Triazine carboxamides as sodium channel blockers” (2015).
# Molecular target: Sodium channel protein type 9 subunit alpha (Homo sapiens, UniProt Q15858)
# Test: FLIPR Assay: […] Sodium Dye Assay with KCl: Cells were prepared by plating the recombinant HEK293 cells or other host cells expressing either recombinant or non-recombinant, native, Nav1.7 alpha subunit, alone or in combination with various beta and gamma subunits at a density of ~40,000 cells/well into a 96-well black, clear-bottom, PDL-coated plate. The assay can be adapted to 384-well or 1,536-well format, if desired, using proportionately fewer cells and less media. The plate was then incubated in growth media, with or without selective antibiotic, overnight at 37 C. at 5% CO2, 95% humidity, in preparation for the assay. For counter-screens of other voltage-gated sodium channels, the procedure was very similar, though optimal densities of cells, media and subsequent assay components can be fine-tuned for the particular cell line or isoform. […] Membrane Potential Assay with KCl: Cells are prepared by plating the recombinant HEK293 cells.
# Type: cell-based
# Chain of Sodium channel protein type 9 subunit alpha (Q15858 whole entry): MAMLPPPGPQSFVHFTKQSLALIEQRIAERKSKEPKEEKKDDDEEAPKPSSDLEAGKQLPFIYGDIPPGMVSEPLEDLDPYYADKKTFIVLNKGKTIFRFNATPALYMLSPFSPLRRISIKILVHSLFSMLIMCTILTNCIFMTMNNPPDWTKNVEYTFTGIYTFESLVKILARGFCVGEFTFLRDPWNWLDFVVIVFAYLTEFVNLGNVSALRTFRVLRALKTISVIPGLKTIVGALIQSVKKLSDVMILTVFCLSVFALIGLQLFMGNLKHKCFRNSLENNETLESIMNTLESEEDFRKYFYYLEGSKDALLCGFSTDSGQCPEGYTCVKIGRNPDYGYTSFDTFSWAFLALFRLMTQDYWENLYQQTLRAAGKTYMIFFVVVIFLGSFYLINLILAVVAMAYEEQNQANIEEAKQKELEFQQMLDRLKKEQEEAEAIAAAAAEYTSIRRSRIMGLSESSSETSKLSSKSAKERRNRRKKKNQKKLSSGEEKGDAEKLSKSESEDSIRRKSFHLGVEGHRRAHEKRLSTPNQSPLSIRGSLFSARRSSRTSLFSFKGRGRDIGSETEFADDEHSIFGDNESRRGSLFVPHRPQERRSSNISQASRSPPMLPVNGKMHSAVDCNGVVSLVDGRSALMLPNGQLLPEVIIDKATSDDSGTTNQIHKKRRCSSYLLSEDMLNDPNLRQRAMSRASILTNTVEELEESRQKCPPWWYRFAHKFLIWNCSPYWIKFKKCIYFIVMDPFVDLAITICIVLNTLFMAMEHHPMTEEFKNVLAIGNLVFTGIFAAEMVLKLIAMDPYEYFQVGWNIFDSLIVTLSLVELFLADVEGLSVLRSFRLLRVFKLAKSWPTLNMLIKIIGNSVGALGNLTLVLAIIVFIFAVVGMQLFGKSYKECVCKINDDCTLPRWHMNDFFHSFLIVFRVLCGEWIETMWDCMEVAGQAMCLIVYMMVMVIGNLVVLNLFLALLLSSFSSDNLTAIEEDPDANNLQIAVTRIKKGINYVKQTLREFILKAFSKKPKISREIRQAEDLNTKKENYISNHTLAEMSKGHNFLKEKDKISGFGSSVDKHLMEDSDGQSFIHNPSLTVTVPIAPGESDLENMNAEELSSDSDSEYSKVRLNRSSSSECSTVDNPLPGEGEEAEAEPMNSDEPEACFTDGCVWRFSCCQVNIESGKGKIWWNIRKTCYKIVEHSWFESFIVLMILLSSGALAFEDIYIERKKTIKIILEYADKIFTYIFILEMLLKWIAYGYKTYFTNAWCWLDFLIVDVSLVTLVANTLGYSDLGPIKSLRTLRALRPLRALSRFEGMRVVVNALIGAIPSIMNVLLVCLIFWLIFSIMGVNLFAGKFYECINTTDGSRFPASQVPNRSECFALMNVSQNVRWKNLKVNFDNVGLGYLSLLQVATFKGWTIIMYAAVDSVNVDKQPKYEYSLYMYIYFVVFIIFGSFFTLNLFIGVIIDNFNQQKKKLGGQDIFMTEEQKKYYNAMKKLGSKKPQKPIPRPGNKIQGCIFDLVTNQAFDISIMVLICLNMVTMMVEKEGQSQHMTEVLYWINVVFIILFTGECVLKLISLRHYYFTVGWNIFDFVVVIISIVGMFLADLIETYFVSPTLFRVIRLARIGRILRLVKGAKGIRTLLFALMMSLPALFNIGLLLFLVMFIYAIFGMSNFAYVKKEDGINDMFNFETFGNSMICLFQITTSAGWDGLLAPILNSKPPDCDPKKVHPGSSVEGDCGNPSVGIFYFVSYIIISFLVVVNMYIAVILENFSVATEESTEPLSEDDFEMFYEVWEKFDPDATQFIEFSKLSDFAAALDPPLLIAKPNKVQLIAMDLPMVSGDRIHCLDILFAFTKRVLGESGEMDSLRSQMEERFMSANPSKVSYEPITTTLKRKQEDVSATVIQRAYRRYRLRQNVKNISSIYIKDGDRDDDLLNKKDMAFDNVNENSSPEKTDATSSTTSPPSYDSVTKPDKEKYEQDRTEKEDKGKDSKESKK
row,SMILES,IC50
1,N#Cc1nc(N[C@H]2CCNC2=O)nc(-c2ccc(Oc3ccc(C(F)(F)F)cn3)cc2)n1,> 20 µM
2,N#Cc1nc(-c2ccc(Oc3ccc(OC(F)(F)F)cc3)cc2)nc(N2CCOCC2)n1,> 20 µM
3,NC(=O)c1nc(N[C@H]2CCNC2=O)nc(-c2ccc(Oc3ccc(C(F)(F)F)cn3)cc2)n1,1.8 µM
